The source of these data is patent publication US4820723A, “Disubstituted tetrazole leukotriene antagonists and methods for their use thereas” (Eli Lilly and Company, priority 1987, dated 1989).

Some results are limits rather than exact numbers.

In test [1] the test system is pressor response to leukotriene D4. The test is described as follows: decrease of LTD4 pressor response in pithed rats. The format is in vivo, Adult male Sprague-Dawley rats. The following applies: Rattus norvegicus, iv, 0.25 h, 15 minutes prior to leukotriene D4 challenge (10 μg/kg, i.v.); dose to decrease pressor response by 50%. The method, then:
A further measure of the final product's activity is their ability to decrease the pressor response in pithed rats that are challenged by LTD4. This activity is measured by the following standard procedure
Adult male Sprague-Dawley rats, weighting approximately 300-500 grams, are anesthetized with pentobarbital sodium (60 mg/kg, i.p.). The trachea is cannulated and the rats are ventilated with room air delivered from a rodent respirator (Harvard, model 680; tidal volume of 1 ml/100 grams body weight, 60 cycles/minute). Rats are pithed by passing a steel rod through the right orbit and down the entire length of the spinal column. The rod is left in position for the duration of the experiment. Pulsatile arterial blood pressure is measured from a cannulated carotid artery using a Stathamtransducer (P231D). Mean arterial blood pressure is calculated as diastolic pressure plus 1/3 pulse pressure. Drug solutions are administered i.v. through a catheter placed in a jugular vein. Arterial blood pressure is recorded on a multichannel oscillograph (Beckman, model R511A).
Groups of pithed rats, usually 4-6/group, are pretreated i.v. with a dose of test compound or vehicle (control experiments) 15 minutes prior to leukotriene D4 challenge (10 μg/kg, i.v.). Usually 3-4 doses of the test compound are evaluated in a given study. Blood pressure responses to leukotriene D4 in control and drug-treated pithed rats are then compared and an ED50 dose of antagonist is estimated. ED50 (95% confidence interval) is the calculated dose of antagonist (mg/kg, i.v.) required to decrease the pressor response to leukotriene D4 by 50%.
The ED50 values of selected final products of Formula I are set forth below in Table 2.

The subject of test [2] is LTD4 evoked ileal contractions. In words: LTD4 antagonism: inhibition of LTD4 evoked contractions of isolated guinea pig ileum. Set-up: species or system Male, Hartley guinea pigs. The following applies: 5 min exposure to drug, 50% inhibition of LTD4 responses, 37° C. How it is done:
Male, Hartley guinea pigs weighing 200-450 grams were killed by decapitation. A section of terminal ileum was removed, the lumen cleaned, and the tissue divided into 2.5 cm segments. The ilea were mounted in 10 ml tissue baths containing Krebs-bicarbonate solution of the following composition in mmoles/liter: KCl, 4.6; CaCl2 ·2H2 O, 1.2; KH2 PO4, 1.2; MgSO4 ·7H2 O, 1.2; NaCl, 118.2; NaHCO3, 24.8; and dextrose, 10.0. The bath fluid was maintained at 37° C. and aerated with 95 percent oxygen and 5 percent CO2. In addition, the buffer contained 1×10^-6 M atropine to reduce ileal spontaneous activity. Isometric measurements were made with a Grass FT03C force-displacement transducer and recorded on a Grass polygraph as change in grams of force. A passive force of 0.5 g. was applied to the tissues. After an appropriate equilibration period, single submaximal control responses to pure LTD4 were obtained. Following a five minute exposure of the ileum to an experimental drug, the control concentration of LTD4 was added to the tissue bath. The response of the ileum to LTD4 in the presence of the drug was compared to the response in the absence of the drug. Various degrees of LTD4 antagonism were obtained using 2-4 different concentrations of an experimental compound on a single ileum.
Percent inhibition of LTD4 evoked ileal contractions

Regarding `CCCc1c(OCCCCc2nnn(CC(=O)O)n2)ccc(C(C)=O)c1O` [A], the ED50 (as a rule, the midpoint of the dose-response relation) in test [1] is greater than 30 mg/kg. Further, the “-log IC50” value in test [2] is on record as 6.68. Consider `CCCc1c(OCCCCc2nnnn2CC(=O)O)ccc(C(C)=O)c1O` [B], for which the ED50 in test [1] is greater than 30 mg/kg. In addition, the “-log IC50” value in test [2] is 5.88.

Regarding `CCCc1c(OCCCc2nnn(CC(=O)O)n2)ccc(C(C)=O)c1O` [C], the “-log IC50” value in test [2] came out at 5.82. `CCCc1c(OCCCc2nnnn2CC(=O)O)ccc(C(C)=O)c1O` [D]: in test [2], the “-log IC50” value was determined as 5.95.

In test [1], `CCCc1c(OCCCCCCc2nnn(CC(=O)O)n2)ccc(C(C)=O)c1O` [E] yielded an ED50 greater than 30 mg/kg. In addition, the “-log IC50” value in test [2] is reported as 6.83. `CCCc1c(OCCCCc2nnn(CCCCc3nnn[nH]3)n2)ccc(C(C)=O)c1O` [Example 23A, 5-[4-(4-Acetyl-3-hydroxy-2-(n-propyl)phenoxy)butyl]-2[4-(1H-tetrazol-5-yl)butyl]-2H-tetrazole] gave an ED50 in test [1] of 7.5 mg/kg. Moreover, the “-log IC50” value in test [2] is 7.65. In the case of `CCCc1c(OCCCCc2nnnn2CCCCC(=O)O)ccc(C(C)=O)c1O` [Example 24], the “-log IC50” value in test [2] worked out at 6.14. In test [1], `CCCc1c(OCCCCc2nnn(CCCc3nn[nH]n3)n2)ccc(C(C)=O)c1O` [Example 25] gave an ED50 of 8.4 mg/kg. Also, the “-log IC50” value in test [2] was found to be 7.42. `CCCc1c(OCCCCc2nnn(CCCCCCc3nn[nH]n3)n2)ccc(C(C)=O)c1O` [Example 26, 5-4-(4-Acetyl-3-hydroxy-2-(n-propyl)phenoxybutyl]-2-[6-(1H-tetrazol-5-yl)hexyl]-2H-tetrazole] registered a 50% effective dose (ED50) in test [1] of 18.6 mg/kg. Also, in test [2], the “-log IC50” value is recorded as 7.63. On to `CCCc1c(OCCCCc2nnn(CCCCCCC(=O)O)n2)ccc(C(C)=O)c1O` [Example 27, 5-[4-(4-Acetyl-3-hydroxy-2-propylphenoxy)butyl]-2H-tetrazole-2-(7-heptanoicacid)], for which the ED50 in test [1] is 12.7 mg/kg. In addition, in test [2], the “-log IC50” value is recorded as 7.05. In test [1], `CCCc1c(OCCCCc2nnn(CCCCCc3nnn[nH]3)n2)ccc(C(C)=O)c1O` [Example 28, 5-[4-(4-Acetyl-3-hydroxy-2-(n-propyl)phenoxy)butyl]-2-[5-(1H-tetrazol-5-yl)pentyl]-2H-tetrazole] had an ED50 of 9.7 mg/kg. Also, in test [2], the “-log IC50” value is listed as 7.57. In turn, `CCCc1c(OCCCCc2nnn(CCCCCC(=O)O)n2)ccc(C(C)=O)c1O` [Example 29] registered an ED50 in test [1] of 8.7 mg/kg. In test [2], the “-log IC50” value was determined as 7.35. `CCCc1c(OCCCCc2nnn(Cc3ccc(-c4nn[nH]n4)cc3)n2)ccc(C(C)=O)c1O` [Example 30] registered an ED50 in test [1] of 16.8 mg/kg. The “-log IC50” value in test [2] is given as 7.54. With `CCCc1c(OCCCCc2nnnn2Cc2ccc(C(=O)O)cc2)ccc(C(C)=O)c1O` [Example 33, 5-[4-(4-Acetyl-3-hydroxy-2-(n-propyl)phenoxy)butyl]-1H-tetrazole-1-[para-methylenebenzoic acid]], the “-log IC50” value in test [2] came out at 6.30. As for `CCCc1c(OCCCCc2nnn(Cc3cccc(-c4nnn[nH]4)c3)n2)ccc(C(C)=O)c1O` [Example 34, 5-[4-(4-Acetyl-3-hydroxy-2-(n-propyl)phenoxy)butyl]-2-[meta-(1H-tetrazol-5-yl)benzyl]-2H-tetrazole], the ED50 in test [1] worked out at 25.5 mg/kg. Further, in test [2], the “-log IC50” value is recorded as 7.52. In the same order, the values of `CCCc1c(OCCCCc2nnn(Cc3cccc(C(=O)O)c3)n2)ccc(C(C)=O)c1O` [Example 35, 5-[4-(4-Acetyl-3-hydroxy-2-(n-propyl)phenoxy)butyl]-2H-tetrazole-2-(α-methylene-m-benzoic acid)] are 27.5 mg/kg and 7.15.

In the case of `CCCc1c(OCCCCCc2nnn(CCCc3nn[nH]n3)n2)ccc(C(C)=O)c1O` [Example 38], in test [2], the “-log IC50” value was found to be 6.62. In test [1], `CCCc1c(OCCCCCc2nnn(CCCC(=O)O)n2)ccc(C(C)=O)c1O` [Example 39, 5-[5-(Acetyl-3-hydroxy-2-(n-propyl)phenoxy)pentyl]-2-[4-butanoic acid]-2H-tetrazole] displayed an ED50 of 25.8 mg/kg. The “-log IC50” value in test [2] is given as 6.37.

Consider `CCCc1c(OCCCCCc2nnn(CCCCc3nnn[nH]3)n2)ccc(C(C)=O)c1O` [Example 40, 5-[5-(4-Acetyl-3-hydroxy-2-(n-propyl)phenoxy)pentyl]-2-[4-(1H-tetrazol-5-yl)butyl]-2H-tetrazole], for which the “-log IC50” value in test [2] is given as 6.83. For the compound `CCCc1c(OCCCCc2nnn(CCC(=O)O)n2)ccc(C(C)=O)c1O` [Example 44, 5-[4-(4-Acetyl-3-hydroxy-2-propylphenoxy)butyl]-2H-tetrazol-2-(3-propionic acid)], the ED50 in test [1] was 10.6 mg/kg. Also, the “-log IC50” value in test [2] is reported as 6.81. Turning to `CCCc1c(OCCCCc2nnnn2CCC(=O)O)ccc(C(C)=O)c1O` [Example 45, 5-[4-(4-Acetyl-3-hydroxy-2-(n-propyl)phenoxy)butyl]-1H-tetrazole-1-[3-propionic acid]], the ED50 in test [1] was greater than 30 mg/kg. In addition, in test [2], the “-log IC50” value was found to be 5.83. The corresponding values for `CCCc1c(OCCCCc2nnn(CCCC(=O)O)n2)ccc(C(C)=O)c1O` [Example 46, 5-[4-(4-Acetyl-3-hydroxy-2-propylphenoxy)butyl]-2H-tetrazol-2-(4-butyric acid)] are 8.1 mg/kg and 7.12. In the same order, the values of `CCCc1c(OCCCCc2nnnn2CCCC(=O)O)ccc(C(C)=O)c1O` [Example 47, 5-[4-(4-Acetyl-3-hydroxy-2-(n-propyl)phenoxy)butyl]-1-[4-butanoic acid]-1H-tetrazole] are greater than 30 mg/kg and 5.89. Regarding `CCCc1c(Oc2ccc(-c3nnn(CCCc4nn[nH]n4)n3)cc2)ccc(C(C)=O)c1O` [Example 59], the “-log IC50” value in test [2] turned out to be 7.50. With `CCCc1c(Oc2ccc(-c3nnn(CCCC(=O)O)n3)cc2)ccc(C(C)=O)c1O` [Example 60, 5-[para-(4-Acetyl-3-hydroxy-2-(n-propyl)phenoxy)phenyl]-2H-tetrazole-2-[4-butanoic acid]], the “-log IC50” value in test [2] was determined as 7.26.

As to `CCCc1c(OCCCc2nnnn2CCCCC(=O)O)ccc(C(C)=O)c1O` [Example 61, 5-[3-(4-Acetyl-3-hydroxy-2-(n-propyl)phenoxy)propyl]-1H-tetrazole-1-[5-pentanoic acid]], in test [2], the “-log IC50” value was determined as 5.20. The same measure, in the same setting: in the case of `CCCc1c(OCCCc2nnn(CCCCC(=O)O)n2)ccc(C(C)=O)c1O` [Example 62, 5-[3-(4-Acetyl-3-hydroxy-2-propylphenoxy)-propyl]-2H-tetrazol-2-(5-pentanoic acid)] it was 6.47; in that of `CCCc1c(OCCCCn2nnc(CCCC(=O)O)n2)ccc(C(C)=O)c1O` [Example 64, 2-[4-(4-Acetyl-3-hydroxy-2-(n-propyl)phenoxy)-butyl]-2H-tetrazole-5-butanoic acid], 7.51; in that of `CCCc1c(OCCCCn2nnnc2CCCC(=O)O)ccc(C(C)=O)c1O` [Example 65, 1-4-(4-acetyl-3-hydroxy-2-(n-propylphenoxy)butyl]-1H-tetrazole-5-butanoic acid], 6.18. As to `CCCc1c(OCCCCn2nnc(Cc3ccc(C(=O)O)cc3)n2)ccc(C(C)=O)c1O` [Example 67, 4-[[2-[4-(4-Acetyl-3-hydroxy-2-(n-propyl)phenoxy)butyl]-2H-tetrazol-5-yl]methyl]benzoic acid], the “-log IC50” value in test [2] is given as 7.25. As for `CCCc1c(OCCCCn2nnnc2Cc2ccc(C(=O)O)cc2)ccc(C(C)=O)c1O` [Example 68], in test [2], the “-log IC50” value was 6.66.
